# Measured values taken from the NIST ThermoML archive (doi:10.1016/j.tca.2012.08.011).
# Numbers after ± are expanded uncertainties.
# Tests used:
# [1] = 101 kPa, Liquid; for speed of sound: Linear variable-path acoustic interferometer; for mass density: Vibrating tube method
# [2] = xn = mol fraction of the nth substance listed; conditions: 101 kPa, Liquid, x2 = 0; for speed of sound: Linear variable-path acoustic interferometer; for mass density: Vibrating tube method
structure (smiles),measurement,setting,value
c1ccccc1 [benzene],speed of sound,[1]; 293.15 K,1322.7 ± 1.4 m/s
same,mass density,[1]; 293.15 K,878.95 ± 0.08 kg/m3
same,speed of sound,[1]; 298.15 K,1299.3 ± 1.4 m/s
same,mass density,[1]; 298.15 K,873.61 ± 0.08 kg/m3
same,speed of sound,[1]; 303.15 K,1276 ± 1.4 m/s
same,mass density,[1]; 303.15 K,868.25 ± 0.08 kg/m3
same,speed of sound,[1]; 308.15 K,1252.8 ± 1.4 m/s
same,mass density,[1]; 308.15 K,862.88 ± 0.09 kg/m3
same,speed of sound,[1]; 313.15 K,1229.8 ± 1.3 m/s
same,mass density,[1]; 313.15 K,857.48 ± 0.09 kg/m3
same,speed of sound,[1]; 318.15 K,1207 ± 1.3 m/s
same,mass density,[1]; 318.15 K,852.08 ± 0.09 kg/m3
same,speed of sound,[1]; 323.15 K,1184.5 ± 1.3 m/s
same,mass density,[1]; 323.15 K,846.65 ± 0.09 kg/m3
c1ccccc1 [benzene] + NC1CCCCC1,speed of sound,[2]; 293.15 K,1322.7 ± 1.4 m/s
same,mass density,[2]; 293.15 K,878.95 ± 0.08 kg/m3
same,speed of sound,[2]; 298.15 K,1299.3 ± 1.4 m/s
same,mass density,[2]; 298.15 K,873.61 ± 0.08 kg/m3
same,speed of sound,[2]; 303.15 K,1276 ± 1.4 m/s
same,mass density,[2]; 303.15 K,868.25 ± 0.08 kg/m3
same,speed of sound,[2]; 308.15 K,1252.8 ± 1.4 m/s
same,mass density,[2]; 308.15 K,862.88 ± 0.09 kg/m3
same,speed of sound,[2]; 313.15 K,1229.8 ± 1.3 m/s
same,mass density,[2]; 313.15 K,857.48 ± 0.09 kg/m3
same,speed of sound,[2]; 318.15 K,1207 ± 1.3 m/s
same,mass density,[2]; 318.15 K,852.08 ± 0.09 kg/m3
same,speed of sound,[2]; 323.15 K,1184.5 ± 1.3 m/s
same,mass density,[2]; 323.15 K,846.65 ± 0.09 kg/m3
C1CCCCC1 [cyclohexane],speed of sound,[1]; 293.15 K,1278.6 ± 1.4 m/s
same,mass density,[1]; 293.15 K,778.55 ± 0.12 kg/m3
same,speed of sound,[1]; 298.15 K,1253.9 ± 1.4 m/s
same,mass density,[1]; 298.15 K,773.84 ± 0.12 kg/m3
same,speed of sound,[1]; 303.15 K,1229.3 ± 1.3 m/s
same,mass density,[1]; 303.15 K,769.11 ± 0.12 kg/m3
same,speed of sound,[1]; 308.15 K,1205.1 ± 1.3 m/s
same,mass density,[1]; 308.15 K,764.35 ± 0.12 kg/m3
same,speed of sound,[1]; 313.15 K,1181 ± 1.3 m/s
same,mass density,[1]; 313.15 K,759.56 ± 0.13 kg/m3
same,speed of sound,[1]; 318.15 K,1157.3 ± 1.3 m/s
same,mass density,[1]; 318.15 K,754.74 ± 0.13 kg/m3
same,speed of sound,[1]; 323.15 K,1133.7 ± 1.3 m/s
same,mass density,[1]; 323.15 K,749.89 ± 0.13 kg/m3
C1CCCCC1 [cyclohexane] + NC1CCCCC1,speed of sound,[2]; 293.15 K,1278.6 ± 1.4 m/s
same,mass density,[2]; 293.15 K,778.55 ± 0.12 kg/m3
same,speed of sound,[2]; 298.15 K,1253.9 ± 1.4 m/s
same,mass density,[2]; 298.15 K,773.84 ± 0.12 kg/m3
same,speed of sound,[2]; 303.15 K,1229.3 ± 1.3 m/s
same,mass density,[2]; 303.15 K,769.11 ± 0.12 kg/m3
same,speed of sound,[2]; 308.15 K,1205.1 ± 1.3 m/s
same,mass density,[2]; 308.15 K,764.35 ± 0.12 kg/m3
same,speed of sound,[2]; 313.15 K,1181 ± 1.3 m/s
same,mass density,[2]; 313.15 K,759.56 ± 0.13 kg/m3
same,speed of sound,[2]; 318.15 K,1157.3 ± 1.3 m/s
same,mass density,[2]; 318.15 K,754.74 ± 0.13 kg/m3
same,speed of sound,[2]; 323.15 K,1133.7 ± 1.3 m/s
same,mass density,[2]; 323.15 K,749.89 ± 0.13 kg/m3
NC1CCCCC1 [cyclohexylamine],speed of sound,[1]; 293.15 K,1430.5 ± 1.6 m/s
same,mass density,[1]; 293.15 K,867.39 ± 0.12 kg/m3
same,speed of sound,[1]; 298.15 K,1408.8 ± 1.6 m/s
same,mass density,[1]; 298.15 K,862.85 ± 0.12 kg/m3
same,speed of sound,[1]; 303.15 K,1387.3 ± 1.5 m/s
same,mass density,[1]; 303.15 K,858.31 ± 0.12 kg/m3
same,speed of sound,[1]; 308.15 K,1366 ± 1.5 m/s
same,mass density,[1]; 308.15 K,853.76 ± 0.12 kg/m3
same,speed of sound,[1]; 313.15 K,1344.5 ± 1.5 m/s
same,mass density,[1]; 313.15 K,849.23 ± 0.13 kg/m3
same,speed of sound,[1]; 318.15 K,1323.1 ± 1.5 m/s
same,mass density,[1]; 318.15 K,844.68 ± 0.13 kg/m3
same,speed of sound,[1]; 323.15 K,1301.8 ± 1.5 m/s
same,mass density,[1]; 323.15 K,840.14 ± 0.13 kg/m3
